According to patent US20210354135A1, “SYSTEMS AND METHODS FOR EVALUATING AN ABILITY OF A BLOOD SAMPLE TO COAGULATE, CLOT, AND/OR OCCLUDE” (The Texas A&M University System, priority 2020, published 2021):

Columns and labels:
whole blood = test: Fibrin area coverage by fluorescence microscopy in collagen-coated tortuous microfluidic device perfused with whole blood; type: cell-based, human
Excerpt: A microfluidic device was then fabricated and mounted onto a microscope for visualization. The microfluidic device was also connected the to a syringe pump to introduce flow therethrough in a configuration similar, in at least some respects, to that of system 10 shown in FIG. 1. Blood first entered into a large reservoir (4.7 mm wide) and then flow split into four smaller parallel stenosed tortuous channels (200 μm wide); followed by convergence of the flow into an outlet similar to the inlet. The 4-channel design is partially analogous to a vessel network in vivo in which clots may form or detach locally, but the pressure still increases due to the systemic thrombosis. In addition, the total width and length of the device were designed to fit on a standard glass microscope slide for practical ease. Each device contains multiple single microchannel sections that were optimized to create maximum tortuosity (alternating 30° bends, corresponding to TI=3.4), to expose flowing whole blood to varying shear rates due to both stenosis and tortuosity, thus promoting rapid clot formation and occlusion. To enable more rapid cell activation and adhesion, the surface of the microchannels were further functionalized within the device with collagen type I, which is a commonly applied platelet agonist. The microfluidic device was operated at a flowrate of 70 μl/min, leading to a pre-stenosed mean wall shear rate of 1,200 reciprocal seconds (1/s) corresponding to typical arteriolar flow, and a wall shear gradient of 935 reciprocal second-millimeters (1/(s-m)) in the straight region following the pre-stenosed reservoir.
Referring to FIGS. 13, 14, re-calcified citrated whole blood was perfused through the microfluidic device for a maximum of 10 minutes at the 70 μl/min, less than 1 mL of blood was consumed, and the formation of various sized thrombi was detected throughout its entire length using fluorescence imaging 205, 207 shown in FIGS. 13, 14, respectively. […]

[1] = test system: recalcified citrated whole blood; test: Pressure-sensor readout of clot formation and clotting time in tortuous microfluidic device perfused with recalcified citrated whole blood; type: cell-based, human; conditions: for clotting time (2.5× pressure increase from baseline): increasing concentration of heparin (0-1 IU/ml) or bivalirudin (0-75 ng/mL), FIGS. 20, 22
Excerpt: Even though microscopic analysis of real-time thrombus formation in the microfluidic device may be useful in labs, the microfluidic device may also be deployed and utilized at the point-of-care. In the interest of utilizing the microfluidic device at the point-of-care, the microfluidic device was connected to a syringe pump, a disposable pressure sensor, and a display monitor. Given that each of these components are already a part of most extracorporeal circuits, these components may be conveniently integrated in broad critical care settings. Additionally, using these components, clot formation may be automatically tracked in real-time by measuring changes in fluid pressure caused by increasing channel occlusion inside the device, as described above with respect to system 10.
It was found during testing of the microfluidic device that as recalcified citrated whole blood was perfused and formed clots inside the microfluidic device, pressure increases typical of the dynamics of clotting in blood vessel in vivo, or in an in vitro hollow channel, was seen, the pressure increases comprising three stages—a steady reaction time, a growth phase, and saturation. […] Next, a clotting time measurement was developed for these pressure readouts to serve as a quantitative end point in lab and clinical settings.
The experimental microfluidic described above was fabricated from PDMS soft lithography to a size that would fit on a standard (e.g., 75 mm×50 mm) microscope slide. The cured PDMS from the master mold was bonded to a […] PDMS-coated glass slide and punched with inlet and outlet 1.5 mm holes. Next, the device was coated with rat tail type I collagen at 100 μg/ml infused into the microfluidic device which was pre-treated with silane. The microfluidic device was incubated at 37° C. for three to four hours and washed with saline solution prior to blood perfusion. At the inlet side of the microfluidic device, a reservoir was created by force-fitting an open slip-tip syringe and fresh blood was stored therein. At the outlet, tubing was connected to an inline, disposable pressure sensor configured to determine pressure change across the microfluidic device. The other end of the pressure sensor was connected to a syringe pump which pulled the stored blood at a mean arteriole wall shear rate of 1200 1/s. Thrombus formation was observed using time-lapse imaging (10×, NA 0.35) of fluorescently labelled fibrinogen (15 μg/ml, Alexa Fluor 647, Invitrogen) and platelets (10 μl/ml Human CD41-PE (clone: VIPL3), Invitrogen) added directly to the blood and incubated at room temperature for approximately eight minutes for whole blood imaging. Fluorescence microscopy of fibrin and platelets was then performed at an interval of approximately 30 seconds.

| Compound | fibrin area coverage (whole blood; bivalirudin 0-100 ng mL−1 added to whole blood, FIGS. 17, 18) | fibrin area coverage (whole blood; bivalirudin at 75 ng/ml in whole blood, FIGS. 17, 18) | blood flow pressure increase over time ([1]; bivalirudin 0-75 ng/mL added into blood, FIG. 21) | clotting time (2.5× pressure increase from baseline) [1] | blood flow pressure curve over time ([1]; increasing doses of tranexamic acid 0-4 mg/mi in whole blood, FIG. 25) | clotting time ([1]; increasing doses of tranexamic acid 0-4 mg/mi in whole blood, FIG. 26) | fibrin area coverage (whole blood; UFH 0-1 IU/mL added to whole blood, fluorescently labelled fibrin, FIGS. 15, 16) | blood flow pressure increase over time ([1]; heparin 0-1 IU/ml added into blood, relative to normal controls, FIG. 19) |
| --- | --- | --- | --- | --- | --- | --- | --- | --- |
| bivalirudin | reduced fibrin | nearly complete clearance | a similar trend | clotting time decreased as concentration increased | – | – | – | – |
| NC[C@H]1CC[C@H](C(=O)O)CC1 [tranexamic acid] | – | – | – | – | relative shift in pressure curve to the left | decrease in clotting time | – | – |
| unfractionated heparin | – | – | – | clotting time decreased as concentration increased | – | – | decrease in fibrin area coverage | the pressure increase shifted relative to normal controls |
